These results are taken from patent US5403726A, “Enzymatic process for producing a galactosylβ1,3glycal disaccaride using β-galactosidase” (priority 1992, dated 1995).

Each structure is given as a SMILES string.

The target of the experiment is β-galactosidase (E. coli) (Escherichia coli, UniProt P00722). The experiment in a line: β-galactosidase-mediated coupling reaction with glycal as potential acceptor. Format: biochemical. The conditions noted are these: donor GalβpNO2 Ph (Compound 1); no reaction product. The source says:
To increase the yield of disaccharide, activated donors were used illustratively here in the kinetic method of glycosidic bond formation. [Nilsson, I. Trends Biotechnol., 6:256 (1988) and the citations therein]. Disaccharide formation was initially examined using commercially available E. coli β-galactosidase [EC 3.2.1.23] and 4-nitrophenyl β-galactopyranoside (Compound 1) as the galactose donor and glucal (Compound 2) [Hodgson, Biotechnology, 9:609 (1991)] as the acceptor. The reaction was monitored by thin layer chromatograph (TLC). After no additional nitrophenyl galactoside appeared to be consumed (19-26 hours), the reaction was terminated.
In a typical procedure, Compound 1 (77 mg, 0.26 mmol) and […] (54 mg, 0.36 mmol) were combined at 25° C. with E. coli β-galactosidase (75 units) in 4 mL of a 0.07 M PIPES/0.2M NaOAc/0.1M EDTA solution at pH 6.5. The progress of the reaction was monitored by TLC (silica gel, 7:2:1 iPrOH--NH4 OH--H2 O). After 26 hours, the solvent was removed in vacuo and the residue treated with acetic anhydride (2 mL) and pyridine (2 mL). After an additional 12 hours, the mixture was concentrated in vacuo and the residue purified by silica gel chromatography (2:3 ethyl acetate-hexanes) to afford a 2.3:1 mixture of β-1,3 and β-1,6 isomers (72 mg, 50 percent). […] The position of the glycoside linkage was unambiguously determined by ^1 H NMR decoupling studies. […]

Sequence of β-galactosidase (E. coli) (P00722 whole entry): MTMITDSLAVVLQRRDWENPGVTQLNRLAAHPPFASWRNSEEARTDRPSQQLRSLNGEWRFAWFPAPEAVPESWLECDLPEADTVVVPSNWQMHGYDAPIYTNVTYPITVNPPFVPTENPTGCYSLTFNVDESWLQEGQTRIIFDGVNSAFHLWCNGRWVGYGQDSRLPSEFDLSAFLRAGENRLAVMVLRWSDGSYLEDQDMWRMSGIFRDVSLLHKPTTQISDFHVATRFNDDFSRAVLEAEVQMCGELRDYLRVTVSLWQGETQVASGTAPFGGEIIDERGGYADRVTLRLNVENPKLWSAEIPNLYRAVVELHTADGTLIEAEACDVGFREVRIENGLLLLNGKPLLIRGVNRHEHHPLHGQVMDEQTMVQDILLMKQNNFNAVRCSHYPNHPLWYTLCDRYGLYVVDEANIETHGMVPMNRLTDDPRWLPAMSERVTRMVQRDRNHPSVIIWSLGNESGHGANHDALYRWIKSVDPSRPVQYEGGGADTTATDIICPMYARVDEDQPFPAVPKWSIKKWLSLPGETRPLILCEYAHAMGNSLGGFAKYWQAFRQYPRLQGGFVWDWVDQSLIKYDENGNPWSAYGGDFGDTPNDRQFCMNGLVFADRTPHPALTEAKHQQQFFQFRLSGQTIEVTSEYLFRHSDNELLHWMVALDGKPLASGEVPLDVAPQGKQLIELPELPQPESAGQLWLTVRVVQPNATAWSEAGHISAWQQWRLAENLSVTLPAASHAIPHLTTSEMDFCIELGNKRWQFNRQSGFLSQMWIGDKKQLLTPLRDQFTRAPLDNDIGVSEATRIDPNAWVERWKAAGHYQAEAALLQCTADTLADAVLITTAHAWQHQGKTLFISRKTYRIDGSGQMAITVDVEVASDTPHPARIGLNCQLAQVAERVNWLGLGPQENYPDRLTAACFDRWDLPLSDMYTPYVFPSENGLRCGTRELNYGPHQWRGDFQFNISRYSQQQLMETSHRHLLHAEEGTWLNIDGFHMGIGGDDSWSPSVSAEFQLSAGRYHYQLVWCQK

Turning to `OC[C@H]1OC=C[C@@H](O)[C@H]1O` [Galactal], the “behaviour as potential acceptor in the β-galactosidase coupling reaction (inhibitor)” value was “acted as an inhibitor”.
